Measured values taken from patent US10058520B2, “Compositions and methods for treating alzheimer's disease and dementia” (Department of Veterans Affairs, priority 2007, dated 2018).

Experiments:
[1] = test system: +356/+755 region of the first intron of the mouse mdm2 gene in LA-N-5 neuroblastoma cells and HCC1806 breast cancer cells; test: pGL3MDM2 reporter transfection assay; format: cell-based; conditions: LA-N-5 and p53 negative HCC1806 cells; FIG. 8 (treatment with T3)
Description: In order to evaluate the direct effect of thyroid hormone on mdm2 gene expression, we cloned the +356/+755 region from the first intron of the mouse mdm2 gene into pGL3-Promoter vector (pGL3MDM2) for use in transfection assays. This region contains an element which binds monomers and homodimers of TRα, in addition to heterodimers of TRα and RXRβ.

[2] = blood, after a single dose; cited from earlier work
human Aβ 1-40 and 1-42 [3] = test: ELISA for human Aβ in brain of R1.40 huAPP transgenic mice treated with T4; format: in vivo, R1.40 human APP transgenic mice
Description: In another study, we discovered that thyroid hormone down-regulates Aβ 1-40 and 1-42 in mice transgenic for the human APP gene. […] R1.40 human APP transgenic mice contain the entire human APP gene carried on a yeast artificial chromosome.
Mice used in these studies carried the complete human APP gene (huAPP), including the 5′ upstream promoter region, inserted into a yeast artificial chromosome (YAC) construct and are referred to as huAPP-YAC transgenic mice (R1.40 strain). The huAPP gene in these mice contained the Swedish mutation and is expressed in high pathology brain regions.
R1.40 mice were implanted with T4 containing slow release pellets for three weeks and ELISA specific for human Aβ was performed utilizing normalized protein from mouse brain cytosols. We observed a 30% decrease in human Aβ 1-42 levels and a 25% decrease in Aβ 1-40 levels in mice treated for three weeks with T4. […] Thus, it has been shown that low level thyroid hormone therapy substantially decreases human Aβ40 and Aβ42 levels in both normal and hypothyroid transgenic mice (n=9 animals per group ±SD).

APP isoforms = test: Western blot with anti-APP antibody on hemisected brain extracts; format: in vivo, mice; conditions: day 21, FIG. 4
Protocol: In FIG. 4, Western blots were performed utilizing anti-APP antibody on protein from the hemisected brain extracts.

APP gene = test: RT-PCR of APP mRNA in brain of normal mice; format: in vivo; conditions: normal mouse brain, day 21; FIG. 2 and 3; APP 751 mRNA for hypothyroid mice
Description: On day 21, animals were killed, whole brains were removed and hemisected for protein and RNA analysis, and serum was collected for T4 analysis.

[4] = test system: APP secretion in SH-SY5Y and LA-N-5 human neuroblastoma cell lines and NHNP neuronal progenitor cells; test: APP isoform secretion in human neuroblastoma and neuronal progenitor cells (western blot); format: cell-based; conditions: differentiated (+RA) and undifferentiated (-RA) SH-SY5Y, all tested human cell lines, 24 hours of treatment, FIG. 1
[5] = humans and mice; previous studies; cited from earlier work
insulin levels = conditions: previous studies; concentration dependent relative to the amount of zinc; cited from earlier work
human Aβ 1-40 and 1-42 [6] = test: ELISA for human Aβ in brain of huAPP transgenic mice treated with CHP+Zn; format: in vivo, human APP transgenic mice; conditions: 1.0 mg/L CHP+10 mg/L Zn, or Zn or CHP alone, n=9, FIG. 14
Description: According to our studies, CHP in combination with a zinc salt decreases Aβ 1-40 and 1-42 in mice transgenic for human APP. […]
In some embodiments, higher doses are effective as well.

[7] = R1.40 mice, T4 slow release pellets for three weeks, brain cytosols, ELISA

thyroid hormone
reporter expression of pGL3MDM2 [1]: negative regulation

NC(Cc1cc(I)c(Oc2cc(I)c(O)c(I)c2)c(I)c1)C(=O)O (stereo not shown) [T4, 3:5,3′:5′ tetra-iodothyronine]
half-life [2]: several days | decrease in Aβ 1-40 levels (human Aβ 1-40 and 1-42 [3]; [7]): 25% | decrease in human Aβ 1-42 levels (human Aβ 1-40 and 1-42 [3]; [7]): 30%

CCCc1cc(=O)[nH]c(=S)[nH]1 [propylthiouracil]
expression of APP isoforms (western blot) relative to euthyroid animals (APP isoforms): increased | APP mRNA levels (RT-PCR) vs control animals (APP gene): increased | brain Aβ levels in hypothyroid animals (human Aβ 1-40 and 1-42 [3]; iodine-deficient PTU diet for three weeks, FIG. 6): increase

N[C@@H](Cc1cc(I)c(Oc2ccc(O)c(I)c2)c(I)c1)C(=O)O [T3, L-triiodothyronine]
APP secretion [4]: negative hormonal regulation of APP secretion in a concentration dependent manner | half-life [2]: hours

O=C1N[C@@H](Cc2cnc[nH]2)C(=O)N2CCC[C@@H]12 [CHP, cyclo-Hispro]
toxicity [5]: non-toxic | insulin levels (insulin levels): does not decrease | brain levels of soluble and insoluble Aβ40 and Aβ42 vs control (human Aβ 1-40 and 1-42 [6]): no significant changes

[Zn] [Zn]
brain levels of soluble and insoluble Aβ40 and Aβ42 vs control (human Aβ 1-40 and 1-42 [6]): no significant changes
